In article PMC5853558, “De novo identification of lipid II binding lipopeptides with antibacterial activity against vancomycin-resistant bacteria” (Chemical Science, 2017):
In brackets after ≈: the same amount, converted by molar mass. *1 amine or outer side, *2 acyl side, *3 side chain or, on linkers, in order; H or OH if unused. Where a SMILES comes first, the peptide text is derived from it. Bridges are numbered along the chain shown (N, C = ends). [ ]: non-standard residue; d: D form. The star is where a group is joined. TBMB = c1c(C[*:1])cc(C[*:3])cc1C[*:2]; NHDecyl = CCCCCCCCCCN*

Tests used:
[1] = system: E. faecium (VRE155); test: microbe, parasite or virus in culture; assay type: cell-based, Enterococcus faecium
Protocol: (§1) Section 4 Biological and biochemical experiments
(§2) 4.1 Minimum inhibitory concentration assay
(§3) MIC values were determined by using the broth microdilution method. Peptides were dissolved first in DMSO and diluted with broth so that the final peptide concentration was 1024 µg/ml and the DMSO concentration was 4%. Peptide serial dilutions were made in TSB in a polypropylene 96-wells plate using 50 µl volumes. An overnight culture of the organism of interest was diluted to and OD600 of 0.01 and grown until they reach 0.5. The culture was then diluted to 1 x 10^6 CFU/ml and 50 µl of this suspension was added to each well. The highest concentrations were then 512 µg/ml peptide and 2% DMSO. The plates were incubated at the preferred growth temperature of the organism that was used and 250 rpm. […] When […]
(§4) determining the MICs of the lipidated peptides, the lipopeptides were first dissolved in DMSO and diluted with TSB so that the peptide concentration was 128 µg/ml and the DMSO concentration was 4%. After inoculation the highest peptide concentration evaluated was 64 µg/ml and the DMSO concentration was 2%. A DMSO control was tested for each strain to ensure the DMSO did not affect the growth of the particular strain. […]

[2] = system: E. faecium (VRE2297); test: microbe, parasite or virus in culture; assay type: cell-based, Enterococcus faecium
Protocol: as §1, §2, §3, §4

[3] = system: E. faecium (VRE7391); test: microbe, parasite or virus in culture; assay type: cell-based, Enterococcus faecium
Protocol: as §1, §2, §3, §4

[4] = system: E. faecium (E980); test: microbe, parasite or virus in culture; assay type: cell-based, Enterococcus faecium
Protocol: as §1, §2, §3, §4

[5] = system: E. faecium (VRE0321); test: microbe, parasite or virus in culture; assay type: cell-based, Enterococcus faecium
Protocol: as §1, §2, §3, §4

[6] = system: M. luteus (NCTC2665); test: microbe, parasite or virus in culture; assay type: cell-based, Micrococcus luteus
Protocol: as §1, §2, §3, §4

[7] = system: S. epidermidis (1587); test: microbe, parasite or virus in culture; assay type: cell-based
Protocol: as §1, §2, §3, §4

[8] = system: S. pyogenes (5448); test: microbe, parasite or virus in culture; assay type: cell-based
Protocol: as §1, §2, §3, §4

[9] = system: B. subtilis (168); test: microbe, parasite or virus in culture; assay type: cell-based
Protocol: as §1, §2, §3, §4

[10] = system: Sheep blood; test: Hemolysis assay; assay type: cell-based
Protocol: Sheep blood in Alsever’s solution (2 mL) was diluted with PBS (13 mL) and centrifuged (2,000 RPM, 5 min). The supernatant was discarded and the cells were washed with another 13 mL of PBS and centrifuged. Washing was continued until the supernatant was clear. After the final wash the supernatant was discarded and the packed cells were kept on ice. Serial dilutions of each peptide were made in 50 µl PBS with the highest tested concentration 64 µg/mL in PBS, 2%
DMSO. The packed cells (150 µL) were suspended in PBS (10 mL) and 50 µL of this suspension was added to each well. A well plate column containing 0.1% triton x-100 in DI water was used as the 100% lysis control and a second column with PBS (with 2% DMSO) served as the 0% lysis control. After incubation at 37°C for 1h the plates were centrifuged (2,000 RPM, 5 min) and 25 µL of the supernatant was added to 100 µL DI water in a flat-bottom 96-wells plate (polystyrene). […]

[11] = Table 2, vancomycin-resistant isolate from hospitalized patients, broth microdilution in TSB, 16 h, highest tested 64 µg/ml
[12] = Supplemental table S9, vancomycin-resistant isolate, MIC values of Table 2 expressed in µM
[13] = Supplemental table S9, MIC values of Table 2 expressed in µM
[14] = Table 2, broth microdilution in TSB, 16 h, read visually, highest tested 64 µg/ml
[15] = Table 2, broth microdilution in TSB, 16 h, read visually, highest tested 64 µg/ml, 2% DMSO
[16] = Supplemental table S9, 1 hour incubation at 37 °C, lipopeptides at 32 µg/mL

CCCCCCCCCCNC(=O)CNC(=O)[C@H]1CSCc2cc3cc(c2)CSC[C@@H](NC(=O)[C@@H](CC(C)C)NC(=O)[C@@H](CC(C)C)NC(=O)[C@@H](CO)NC(=O)[C@@H](CCC(N)=O)NC(=O)[C@@H](CC(C)C)NC(=O)[C@@H](CC(C)C)NC(=O)[C@H](NC(=O)[C@@H](C)N)CSC3)C(=O)N2CCC[C@@H]2C(=O)N[C@H](Cc2ccc(O)cc2)C(=O)N[C@H](CO)C(=O)N[C@H]([C@H](C)O)C(=O)N[C@H](CCCNC(=N)N)C(=O)N[C@H](C)C(=O)N1 [P8-D-(H14R, R15A)-C10] (H-[dA][dC][dL][dL][dQ][dS][dL][dL][dC][dP][dY][dS][dT][dR][dA][dC]G-NHDecyl; linker 2-9-16 via TBMB; N-terminus assumed)
MIC E. faecium (VRE155) [1, 11]: 8–16 μg mL^–1 | MIC E. faecium (VRE2297) [2, 12]: 15.6 µM (≈ 32 µg/mL) | MIC E. faecium (VRE2297) [2, 11]: 16 μg mL^–1 | MIC E. faecium (VRE7391) [3, 11]: 8–16 μg mL^–1 | MIC E. faecium (E980) [4, 13]: 31.2 µM (≈ 64 µg/mL) | MIC E. faecium (E980) [4, 14]: 32 μg mL^–1 | MIC E. faecium (VRE0321) [5, 11]: 8–16 μg mL^–1 | MIC M. luteus (NCTC2665) [6, 13]: 3.9 µM (≈ 8.01 µg/mL) | MIC M. luteus (NCTC2665) [6, 15]: 4 μg mL^–1 | MIC S. epidermidis (1587) [7, 13]: > 62. 4 µM | MIC S. epidermidis (1587) [7, 14]: >64 μg mL^–1 | MIC S. pyogenes (5448) [8, 13]: 15.6 µM (≈ 32 µg/mL) | MIC S. pyogenes (5448) [8, 14]: 16 μg mL^–1 | MIC B. subtilis (168) [9, 13]: 15.6 µM (≈ 32 µg/mL) | MIC B. subtilis (168) [9, 14]: 16 μg mL^–1 | Hemolysis [10, 16]: 2%

CCCCCCCCCCNC(=O)CNC(=O)[C@H]1CSCc2cc3cc(c2)CSC[C@@H](NC(=O)[C@@H](CC(C)C)NC(=O)[C@@H](CC(C)C)NC(=O)[C@@H](CO)NC(=O)[C@@H](CCC(N)=O)NC(=O)[C@@H](CC(C)C)NC(=O)[C@@H](CC(C)C)NC(=O)[C@H](NC(=O)[C@@H](C)N)CSC3)C(=O)N[C@H](CCCNC(=N)N)C(=O)N[C@H](Cc2ccc(O)cc2)C(=O)N[C@H](CO)C(=O)N[C@H]([C@H](C)O)C(=O)N[C@H](Cc2c[nH]cn2)C(=O)N[C@H](C)C(=O)N1 [P8-D-(P10R, R15A)-C10] (H-[dA][dC][dL][dL][dQ][dS][dL][dL][dC][dR][dY][dS][dT][dH][dA][dC]G-NHDecyl; linker 2-9-16 via TBMB; N-terminus assumed)
MIC E. faecium (VRE155) [1, 12]: 7.7 µM (≈ 16.1 µg/mL) | MIC E. faecium (VRE155) [1, 11]: 8 μg mL^–1 | MIC E. faecium (VRE2297) [2, 12]: 30.6 µM (≈ 64 µg/mL) | MIC E. faecium (VRE2297) [2, 11]: 32 μg mL^–1 | MIC E. faecium (VRE7391) [3, 12]: 15.3 µM (≈ 32 µg/mL) | MIC E. faecium (VRE7391) [3, 11]: 16 μg mL^–1 | MIC E. faecium (E980) [4, 13]: 30.6 µM (≈ 64 µg/mL) | MIC E. faecium (E980) [4, 14]: 32 μg mL^–1 | MIC E. faecium (VRE0321) [5, 12]: 15.3 µM (≈ 32 µg/mL) | MIC E. faecium (VRE0321) [5, 11]: 16 μg mL^–1 | MIC M. luteus (NCTC2665) [6, 13]: 3.8 µM (≈ 7.95 µg/mL) | MIC M. luteus (NCTC2665) [6, 15]: 4 μg mL^–1 | MIC S. epidermidis (1587) [7, 13]: > 61. 2 µM | MIC S. epidermidis (1587) [7, 14]: >64 μg mL^–1 | MIC S. pyogenes (5448) [8, 13]: 15.3 µM (≈ 32 µg/mL) | MIC S. pyogenes (5448) [8, 14]: 16 μg mL^–1 | MIC B. subtilis (168) [9, 13]: 7.7 µM (≈ 16.1 µg/mL) | MIC B. subtilis (168) [9, 14]: 8 μg mL^–1 | Hemolysis [10, 16]: 0%

CCCCCCCCCCNC(=O)CNC(=O)[C@H]1CSCc2cc3cc(c2)CSC[C@@H](NC(=O)[C@@H](CC(C)C)NC(=O)[C@@H](CC(C)C)NC(=O)[C@@H](CO)NC(=O)[C@@H](CCC(N)=O)NC(=O)[C@@H](CC(C)C)NC(=O)[C@@H](CC(C)C)NC(=O)[C@H](NC(=O)[C@@H](C)N)CSC3)C(=O)N2CCC[C@@H]2C(=O)N[C@H](Cc2ccc(O)cc2)C(=O)N[C@H](CO)C(=O)N[C@H]([C@H](C)O)C(=O)N[C@H](Cc2c[nH]cn2)C(=O)N[C@H](C)C(=O)N1 [P8-D-(R15A)-C10] (H-[dA][dC][dL][dL][dQ][dS][dL][dL][dC][dP][dY][dS][dT][dH][dA][dC]G-NHDecyl; linker 2-9-16 via TBMB; N-terminus assumed)
MIC E. faecium (VRE155) [1, 11]: 16 μg mL^–1 | MIC E. faecium (VRE2297) [2, 12]: > 63. 1 µM | MIC E. faecium (VRE2297) [2, 11]: >64 μg mL^–1 | MIC E. faecium (VRE7391) [3, 12]: > 63. 1 µM | MIC E. faecium (VRE7391) [3, 11]: >64 μg mL^–1 | MIC E. faecium (E980) [4, 13]: 63.1 µM (≈ 128 µg/mL) | MIC E. faecium (E980) [4, 14]: 64 μg mL^–1 | MIC E. faecium (VRE0321) [5, 11]: 8–16 μg mL^–1 | MIC M. luteus (NCTC2665) [6, 13]: 3.9 µM (≈ 7.93 µg/mL) | MIC M. luteus (NCTC2665) [6, 15]: 4 μg mL^–1 | MIC M. luteus (NCTC2665) ([6]; Table 2, broth microdilution in TSB, 16 h, read visually, highest tested 64 µg/ml, 2% DMSO, listed as P8-R15A-C10): retained activity | MIC S. epidermidis (1587) [7, 13]: > 63. 1 µM | MIC S. epidermidis (1587) [7, 14]: >64 μg mL^–1 | MIC S. pyogenes (5448) [8, 14]: 16 μg mL^–1 | MIC B. subtilis (168) [9, 13]: > 63.1 µM | MIC B. subtilis (168) [9, 14]: >64 μg mL^–1 | Hemolysis [10, 16]: 0% | Hemolysis ([10]; Table 2, sheep blood cells in PBS, lipopeptides at 32 μg mL^–1, 1 hour at 37 °C, absorption at 414 nm, 0.1% triton x-100 = 100% lysis, listed as P8-R15A-C10): completely non-hemolytic
